In patent EP4748844A1, “AZETIDINE COMPOUND AND MEDICAL USE THEREOF” (SHANGHAI INSTITUTE OF MATERIA MEDICA, CHINESE ACADEMY OF …, priority 2023, dated 2025):

Tests used:
[1] = tested on: STING agonist (MSA-2) stimulation; assay: In vivo anti-inflammatory effect of oral administration on STING agonist (MSA-2) stimulation; parameters: species or system C57BL6 female mice; settings: I-77 20mpk
Protocol: (§1) 6-8 week C57BL6 female mice, purchased from Shanghai Jihui Experimental Animal Breeding Co., Ltd. Compound preparation method: 2 mg of I-77 powder was taken, 12 µL of PEG400 was added thereto and ultrasonically dissolved, and then 8 µL of Tween 80 was added and ultrasonically mixed to prepare a 100 mg/mL stock solution.
(§2) Experimental grouping: The control group was administered vehicle solvent; The model group was administered MSA-2 (10mpk, dissolved in 40% PEG400); The treatment group (I-77) was administered MSA-2 and I-77 (20mpk, PO). A final concentration of 20 mg/mL of I-77 solution was prepared by dilution with double distilled water, and 200 µL of the solution was taken and administered intragastrically into the mice in treatment group; The control group and MSA-2 group were administered intragastrically with 200 µL of vehicle solvent diluted 10 times. […] After high-speed centrifugation of blood samples, the plasma was taken and diluted by 2 times, and the levels of CXCL10 and IL6 in the plasma were detected using the Lianke ELISA kit. RNA was extracted from heart and kidney samples, and reversed to cDNA, and inflammation related cytokines (ISG15, ISG56, IL6, and IP10) in tissues were detected using qPCR technology. […]

[2] = tested on: STING-V154M mutant autoimmune mouse disease model; assay: Inflammatory inhibitory effect of oral administration in STING-V154M mutant autoimmune mouse disease model; assay type: in vivo; settings: I-77 20mpk
Protocol: The model mice were purchased from GEMPHARMATECH CO., LTD., and the wild-type C57/BL6 mice were also purchased from GEMPHARMATECH CO., LTD... Compound preparation method: 2 mg of I-77 powder was taken, 12 µL of PEG400 was added thereto and ultrasonically dissolved, and then 8 µL of Tween 80 was added and ultrasonically mixed to prepare a 100 mg/mL stock solution.
Experimental grouping: Wild type mice control group (Control) was administered vehicle solvent; The model mice group (Model) was administered solvent; The treatment group (I-77) was administered I-77 (20mpk, PO) to the model mice. The mice in the I-77 treatment group were intragastrically administered 200 µL of I-77 solution at a final concentration of […] which was prepared by dilution with double-distilled water; The same dose of solvent was administered to the remaining groups until the mortality rate of the model group exceeded 50%. The kidneys and heart were collected from the experimental endpoint samples. RNA extraction was performed on heart and kidneys samples, and the RNA was reversed to cDNA. Changes in gene expression of inflammation related cytokines (ISG15, CCL5, IP10, ISG56) in the tissues were detected using qPCR technology. Statistical method: One way ANOVA, *P<0.05, **P<0.01, ***P<0.001, ***P<0.0001.

[3] = tested on: DMXAA induced ISG gene expression in mouse RAW-Lucia cells; assay: Inhibition of DMXAA-induced ISG gene expression in mouse RAW-Lucia cells (QUANTI-Luc); assay type: cell-based; settings: STING agonist DMXAA 50 µM, incubated for 24 hours
In short: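 RAW-Lucia cells (4×10^5/mL) stimulated with 50 µM DMXAA and co-incubated 24 h with compound at 10 to 0.004 µM (3-fold steps, 0.1% DMSO). Secreted luciferase in supernatant read with QUANTI-Luc; inhibition calculated against DMXAA-only control, IC50 from four-parameter variable-slope fit constrained 0–100.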

[4] = tested on: STING agonist (MSA-2) stimulation; assay: In vivo anti-inflammatory effect of injection administration on STING agonist (MSA-2) stimulation; parameters: species or system C57BL6 female mice; settings: I-77 10mpk, IP
Protocol: as §1
as §2, with “I-77 (10mpk, IP).” for “I-77 (20mpk, PO).”, “of […]” for “of 20”, “and injected intraperitoneally” for “and administered intragastrically”, “were injected intraperitoneally” for “were administered intragastrically”

## CC1(C)C(=O)N(Cc2ccsc2)c2cc(C(=O)Nc3c[nH]c4ccccc34)ccc21 [Example I-77, N-(1H-indol-3-yl)-3,3-dimethyl-2-oxo-1-(thien-3-ylmethyl)indolin-6-carboxamide]
[1]; 1 hour before MSA-2 (10mpk), plasma ELISA after 4 hours, Figure 4
  levels of IL6 and IP10 in plasma induced by MSA-2 injection: significantly reduced
[1]; qPCR of ISG15, ISG56, IL6, IP10 in tissues, Figures 5, 6
  inflammatory response of the heart and kidneys induced by MSA-2 stimulation: inhibited the inflammatory response
[2]; qPCR of ISG15, CCL5, IP10, ISG56 in heart and kidneys, Figures 8, 9
  cardiac and renal inflammatory responses of STING V154M mutant model mice: inhibit the cardiac and renal inflammatory responses
[2]; until mortality of the model group exceeded 50%, Figure 7
  survival of STING V154M mutant model mice: significantly prolong the survival
[3]
  IC50: 2.28 nM
[4]; 3 hours before MSA-2 (10mpk), plasma ELISA 3 hours after MSA-2, Figure 1
  IL6 and IP10 levels in plasma stimulated by MSA-2: significantly inhibit the increase
[4]; qPCR of ISG15, ISG56, IL6, IP10 in tissues, Figures 2, 3
  inflammatory response of the heart and kidneys induced by MSA-2 stimulation: suppress the inflammatory response
